The source of these data is patent US20230081426A1, “COMPOUNDS AND METHODS FOR KRAS MODULATION AND INDICATIONS THEREFOR” (Plexxikon Inc., priority 2020, published 2023).

By IC50 is commonly meant the concentration that inhibits the measured activity by half.

The assay has as its target T1, G12D-mutant human KRAS (amino acid residues 1-188) (Homo sapiens, UniProt P01116, G12D).
T1 construct: G12D or G12C-mutant human KRAS (amino acid residues 1-188) with FLAG tag; made in house; host or cells: E. coli
Nature of the assay: KRAS Binding Disruption Assay (AlphaScreen; biotinylated KRpep-2d analogue or RAF1-RBD), G12D. Particulars: KRAS G12D; geometric mean; read-out: KRAS GMean IC50 (uM) MUTATION: G12D. Here is the method: Compound binding disrupts the interaction of KRpep-2d or RAF1-RBD with KRAS, leading to a decrease in Alpha signal.
All assay components were prepared in 20 mM HEPES (pH 7.5), 100 mM NaCl, 5 mM MgCl2, 0.01% Tween-20, and 0.01% BSA. Biotinylated analogues of KRpep-2d were custom synthesized. The binding disruption assays were performed using 5-20 nM of mutant KRAS and 5-20 nM of either biotinylated KRpep-2d analogue or RAF1-RBD. 19 μL of KRAS protein and 4 μL of biotinylated KRpep-2d or RAF1-RBD were added to the wells of a 384-well plate containing 1 μL of various concentrations of test compound or DMSO vehicle. 16 wells containing KRAS, biotinylated KRpep-2d or RAF1-RBD, and 5% DMSO served as high controls. 16 wells containing KRAS only and 5% DMSO served as low controls. Binding reactions were incubated for 1 hour at 25° C., then Anti-Flag Acceptor and Streptavidin Donor Alpha beads were added at a final concentration of 10 μg/mL for an additional hour at room temperature. Alpha signal was read out on a Perkin Elmer Envision HTS instrument. The percentage inhibition at individual compound concentrations relative to high and low controls was calculated. The data were analyzed by using nonlinear regression to generate IC50 values.
For orientation: Alpha assays give light when donor and acceptor beads are brought close together.

T1 sequence (P01116 1-188 isoform P01116-2 G12D): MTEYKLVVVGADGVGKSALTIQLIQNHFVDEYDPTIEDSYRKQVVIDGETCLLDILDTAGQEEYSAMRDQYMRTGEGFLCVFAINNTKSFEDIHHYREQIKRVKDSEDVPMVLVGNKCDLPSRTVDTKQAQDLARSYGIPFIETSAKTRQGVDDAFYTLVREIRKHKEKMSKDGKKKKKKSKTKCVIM

In the case of `CN1CCC[C@H]1COc1nc(N2C[C@H]3CC[C@@H](C2)N3C(=O)c2n[nH]c(=O)[nH]2)c2ccc(-c3cc(O)cc4ccccc34)cc2n1` [P-0113, 5-((1R,5S)-3-(7-(3-hydroxynaphthalen-1-yl)-2-(((S)-1-methylpyrrolidin-2-yl)methoxy)quinazolin-4-yl)-3,8-diazabicyclo[3.2.1]octane-8-carbonyl)-2,4-dihydro-3H-1,2,4-triazol-3-one], the IC50 lay in the range of 10 to 100 µM.

`O=C(CO)C1(O)CN(c2nc(N3C[C@H]4CC[C@@H](C3)N4)c3ccc(-c4cc(O)cc5ccccc45)c(F)c3n2)C1` [P-0507, 1-(1-(4-((1R,5S)-3,8-diazabicyclo[3.2.1]octan-3-yl)-8-fluoro-7-(3-hydroxynaphthalen-1-yl)quinazolin-2-yl)-3-hydroxyazetidin-3-yl)-2-hydroxyethan-1-one]: the IC50 was 0.0001 to 10 µM. The same measure for `Oc1cc(-c2ccc3c(N4C[C@H]5CC[C@@H](C4)N5)nc(N4CCC5(CNC5)C4)nc3c2F)c2ccccc2c1` [P-0508, 4-(4-((1R,5S)-3,8-diazabicyclo[3.2.1]octan-3-yl)-8-fluoro-2-(2,6-diazaspiro[3.4]octan-6-yl)quinazolin-7-yl)naphthalen-2-ol]: 0.0001 to 10 µM; for `Oc1cc(-c2ccc3c(N4C[C@H]5CC[C@@H](C4)N5)nc(N4CC5CCNCC5C4)nc3c2F)c2ccccc2c1` (stereo partly drawn) [P-0509, 4-(4-((1R,5S)-3,8-diazabicyclo[3.2.1]octan-3-yl)-8-fluoro-2-(octahydro-2H-pyrrolo[3,4-c]pyridin-2-yl)quinazolin-7-yl)naphthalen-2-ol]: 0.0001 to 10 µM; for `C#Cc1cccc2[nH]cc(-c3ccc4c(N5C[C@H]6CC[C@@H](C5)N6)nc(OCC56CCCN5CCC6)nc4c3F)c12` [P-0513, 4-((1R,5S)-3,8-diazabicyclo[3.2.1]octan-3-yl)-7-(4-ethynyl-1H-indol-3-yl)-8-fluoro-2-((tetrahydro-1H-pyrrolizin-7a(5H)-yl)methoxy)quinazoline]: 0.0001 to 10 µM. Take `CC(=O)c1c(F)ccc2[nH]cc(-c3ccc4c(N5C[C@H]6CC[C@@H](C5)N6)nc(OCC56CCCN5CCC6)nc4c3F)c12` [P-0514]: the IC50 was 0.0001 to 10 µM. In the case of `C#Cc1c(F)ccc2[nH]cc(-c3ccc4c(N5C[C@H]6CC[C@@H](C5)N6)nc(OCC56CCCN5CCC6)nc4c3F)c12` [P-0515], the IC50 was in the range of 0.0001 to 10 µM. Take `CC(CO)(COc1nc(N2C[C@H]3CC[C@@H](C2)N3)c2ccc(-c3cc(O)cc4ccccc34)c(F)c2n1)c1ccccc1` (stereo partly drawn) [P-0516, 4-(4-((1R,5S)-3,8-diazabicyclo[3.2.1]octan-3-yl)-8-fluoro-2-(3-hydroxy-2-methyl-2-phenylpropoxy)quinazolin-7-yl)naphthalen-2-ol]: the IC50 fell in the range of 0.0001 to 10 µM. `O=C(O)CCc1cccc2[nH]cc(-c3ccc4c(N5C[C@H]6CC[C@@H](C5)N6)nc(OCC56CCCN5CCC6)nc4c3F)c12` [P-0518, 3-(3-(4-((1R,5S)-3,8-diazabicyclo[3.2.1]octan-3-yl)-8-fluoro-2-((tetrahydro-1H-pyrrolizin-7a(5H)-yl)methoxy)quinazolin-7-yl)-1H-indol-4-yl)propanoic acid]: the IC50 lay in the range of 0.0001 to 10 µM. The value for `N#CCCc1cccc2[nH]cc(-c3ccc4c(N5C[C@H]6CC[C@@H](C5)N6)nc(OCC56CCCN5CCC6)nc4c3F)c12` [P-0519, 3-(3-(4-((1R,5S)-3,8-diazabicyclo[3.2.1]octan-3-yl)-8-fluoro-2-((tetrahydro-1H-pyrrolizin-7a(5H)-yl)methoxy)quinazolin-7-yl)-1H-indol-4-yl)propanenitrile] was 0.0001 to 10 µM. For the compound `O=C1NCCN1CCOc1nc(N2C[C@H]3CC[C@@H](C2)N3)c2ccc(-c3cc(O)cc4ccccc34)c(F)c2n1` [P-0520, 1-(2-((4-((1R,5S)-3,8-diazabicyclo[3.2.1]octan-3-yl)-8-fluoro-7-(3-hydroxynaphthalen-1-yl)quinazolin-2-yl)oxy)ethyl)imidazolidin-2-one], the IC50 lay in the range of 0.0001 to 10 µM. The value for `C#Cc1cccc2cccc(-c3ccc4c(N5C[C@H]6CC[C@@H](C5)N6)nc(OCC56CCCN5CCC6)nc4c3F)c12` [P-0521, 4-((1R,5S)-3,8-diazabicyclo[3.2.1]octan-3-yl)-7-(8-ethynylnaphthalen-1-yl)-8-fluoro-2-((tetrahydro-1H-pyrrolizin-7a(5H)-yl)methoxy)quinazoline] was 0.0001 to 10 µM.

For the compound `CC(=O)c1cccc2cccc(-c3ccc4c(N5C[C@H]6CC[C@@H](C5)N6)nc(OCC56CCCN5CCC6)nc4c3F)c12` [P-0522, 1-(8-(4-((1R,5S)-3,8-diazabicyclo[3.2.1]octan-3-yl)-8-fluoro-2-((tetrahydro-1H-pyrrolizin-7a(5H)-yl)methoxy)quinazolin-7-yl)naphthalen-1-yl)ethan-1-one], the IC50 was in the range of 0.0001 to 10 µM. `Cc1ccc2[nH]ncc2c1-c1c(Cl)cc2c(N3C[C@H]4CC[C@@H](C3)N4)nc(OCC34CCCN3CCC4)nc2c1F` [P-0523, 4-((1R,5S)-3,8-diazabicyclo[3.2.1]octan-3-yl)-6-chloro-8-fluoro-7-(5-methyl-1H-indazol-4-yl)-2-((tetrahydro-1H-pyrrolizin-7a(5H)-yl)methoxy)quinazoline]: the IC50 fell in the range of 0.0001 to 10 µM. Turning to `OCC(CO)COc1nc(N2C[C@H]3CC[C@@H](C2)N3)c2ccc(-c3cc(O)cc4ccccc34)c(F)c2n1` [P-0524, 2-(((4-((1R,5S)-3,8-diazabicyclo[3.2.1]octan-3-yl)-8-fluoro-7-(3-hydroxynaphthalen-1-yl)quinazolin-2-yl)oxy)methyl)propane-1,3-diol], the IC50 lay within 0.0001 to 10 µM. Take `CC(CO)(CO)COc1nc(N2C[C@H]3CC[C@@H](C2)N3)c2ccc(-c3cc(O)cc4ccccc34)c(F)c2n1` [P-0525, 2-(((4-((1R,5S)-3,8-diazabicyclo[3.2.1]octan-3-yl)-8-fluoro-7-(3-hydroxynaphthalen-1-yl)quinazolin-2-yl)oxy)methyl)-2-methylpropane-1,3-diol]: the 50% inhibitory concentration (IC50) lay in the range of 0.0001 to 10 µM.

Regarding `Oc1cc(-c2ccc3c(N4C[C@H]5CC[C@@H](C4)N5)nc(N4CCC5(CCNC5)C4)nc3c2F)c2ccccc2c1` (stereo partly drawn) [P-0526, 4-(4-((1R,5S)-3,8-diazabicyclo[3.2.1]octan-3-yl)-8-fluoro-2-(2,7-diazaspiro[4.4]nonan-2-yl)quinazolin-7-yl)naphthalen-2-ol], the IC50 fell in the range of 0.0001 to 10 µM. With `Oc1cc(-c2ccc3c(N4C[C@H]5CC[C@@H](C4)N5)nc(N4CCC5(CCOCC5)C4)nc3c2F)c2ccccc2c1` [P-0527, 4-(4-((1R,5S)-3,8-diazabicyclo[3.2.1]octan-3-yl)-8-fluoro-2-(8-oxa-2-azaspiro[4.5]decan-2-yl)quinazolin-7-yl)naphthalen-2-ol], the IC50 was in the range of 0.0001 to 10 µM. The value for `Oc1cc(-c2ccc3c(N4C[C@H]5CC[C@@H](C4)N5)nc(N4CCC5(CCOC5)C4)nc3c2F)c2ccccc2c1` (stereo partly drawn) [P-0528, 4-(4-((1R,5S)-3,8-diazabicyclo[3.2.1]octan-3-yl)-8-fluoro-2-(2-oxa-7-azaspiro[4.4]nonan-7-yl)quinazolin-7-yl)naphthalen-2-ol] was 0.0001 to 10 µM; that for `CNCC1(CC#N)CCN(c2nc(N3C[C@H]4CC[C@@H](C3)N4)c3ccc(-c4cc(O)cc5ccccc45)c(F)c3n2)C1` (stereo partly drawn) [P-0529, 2-(1-(4-((1R,5S)-3,8-diazabicyclo[3.2.1]octan-3-yl)-8-fluoro-7-(3-hydroxynaphthalen-1-yl)quinazolin-2-yl)-3-((methylamino)methyl)pyrrolidin-3-yl)acetonitrile] was 0.0001 to 10 µM; that for `CCN(CC)C1CCN(c2nc(N3C[C@H]4CC[C@@H](C3)N4)c3ccc(-c4cc(O)cc5ccccc45)c(F)c3n2)C1` (stereo partly drawn) [P-0530, 4-(4-((1R,5S)-3,8-diazabicyclo[3.2.1]octan-3-yl)-2-(3-(diethylamino)pyrrolidin-1-yl)-8-fluoroquinazolin-7-yl)naphthalen-2-ol] was 0.0001 to 10 µM. The same measure for `CCNC1CCN(c2nc(N3C[C@H]4CC[C@@H](C3)N4)c3ccc(-c4cc(O)cc5ccccc45)c(F)c3n2)C1` (stereo partly drawn) [P-0531, 4-(4-((1R,5S)-3,8-diazabicyclo[3.2.1]octan-3-yl)-2-(3-(ethylamino)pyrrolidin-1-yl)-8-fluoroquinazolin-7-yl)naphthalen-2-ol]: 0.0001 to 10 µM. The same measure for `Oc1cc(-c2c(Cl)cc3c(N4C[C@H]5CC[C@@H](C4)N5)nc(OCCCN4CCC(F)(F)C4)nc3c2F)c2ccccc2c1` [P-0532, 4-(4-((1R,5S)-3,8-diazabicyclo[3.2.1]octan-3-yl)-6-chloro-2-(3-(3,3-difluoropyrrolidin-1-yl)propoxy)-8-fluoroquinazolin-7-yl)naphthalen-2-ol]: 0.0001 to 10 µM; for `Fc1c(-c2csc3ccccc23)ccc2c(N3C[C@H]4CC[C@@H](C3)N4)nc(OCC34CCCN3CCC4)nc12` [P-0533, 7-(benzo[b]thiophen-3-yl)-4-((1R,5S)-3,8-diazabicyclo[3.2.1]octan-3-yl)-8-fluoro-2-((tetrahydro-1H-pyrrolizin-7a(5H)-yl)methoxy)quinazoline]: 0.0001 to 10 µM. `Fc1c(-c2csc3cccc(Cl)c23)ccc2c(N3C[C@H]4CC[C@@H](C3)N4)nc(OCC34CCCN3CCC4)nc12` [P-0534]: the IC50 lay in the range of 0.0001 to 10 µM.
